Laboratory results taken from patent publication US20250304593A1 (Skyhawk Therapeutics, Inc., priority 2022, published 2025).

Legend:
[1] = system: total ATXN3 protein; assay: ATXN3 total protein assay (Mesoscale Discovery); assay type: cell-based, Human; conditions: SK-N-MC cells, 48 hours incubation, MSD assay; read-out: ATXN3 Potency - Protein IC50
Procedure: Human neuroblastoma SK-N-MC cells were seeded at 10,000 cells/well in 384 well plates one day prior to compound treatment. The concentrations of compounds were tested at appropriate doses ranging from 30 µM to 0.6 nM. After incubation for 48 hours, the cells were lysed with 25.L of lysis buffer containing protease inhibitors, and total ATXN3 protein levels were assessed by Mesoscale Discovery (MSD) assay developed with one pair of anti-ATXN3 antibodies. The capture and detect antibodies were raised in mouse and rabbit respectively. Anti-rabbit MSD-ST antibody was used for secondary antibody.
ATXN3 recombinant protein was used for standards. The readouts were captured with 35 μL of MSD read buffer and multi-array 384-well high binding plates.

[2] = system: ATXN3 transcripts containing exon 4 (E4E5); assay: ATXN3 quantitative splicing assay (qPCR, E4E5 primers/probe detecting transcripts containing exon 4); assay type: cell-based; conditions: Homo sapiens, SK-N-MC cells, 24 h treatment
Procedure: Human neuroblastoma SK-N-MC cells were plated in 384-well plates at 20,000 cells/well. Twenty-four hours after plating, cells were treated with compounds for 24 h at appropriate concentrations ranging from 30.M to 0.6 nM (0.300 DMS0). Treated cells were lysed in 15.L of lysis buffer, and cDNA was synthesized using the Fast Advanced Cells-to-Ct kit. Two L of each cDNA was used in qPCR reactions to confirm the exon 4 skipped transcripts of ATXN3. A second set of primers/probe E4E5 was used to detect the transcripts containing exon 4. The third set of primers/probe E8E9 was used to detect total gene level of ATXN3. The qPCR reactions were prepared in 384-well plates in 10 L volume, using TaqMan™ Fast Advanced Master Mix with primers and probes shown in the table below. Reactions were run in a Quant Studio 6 qPCR instrument with default settings.
The primers and probes are listed below in Table 4.

[3] = system: ATXN3-HiBiT protein; assay: ATXN3 HiBiT assay (luminescence, Kelly-ATXN3-HiBiT cell line); assay type: cell-based; conditions: Kelly-ATXN3-HiBiT cells, read out 48 h after addition of compound
Description: To monitor ATXN3 protein levels by luminescence, a Kelly-ATXN3-HiBiT cell line with homozygous knock-in of HiBiT at the C-terminus of the endogenous ATXN3 gene was used (knock-in of the HiBiT-tag coding sequence SEQ ID NO. 14: 5′[…]3′ into exon 11 of ATXN3 -position 1114 of ATXN3 RefSeq NM_004993.6). Manipulations of the Kelly-ATXN3-HiBiT cell line that result in downregulation of the ATXN3-HiBiT protein (through modulation of ATXN3-HiBiT pre-mRNA splicing) can be followed by monitoring the luminescence signal of the HiBiT tag using the Nano Glo HiBiT Lytic Detection System (Promega, #N3050). Kelly-ATXN3-HiBiT cells were maintained in RPMI 1640 w/Glutamax (Gibco, #61870010), 10% FBS (Sigma Aldrich, #F8687), 1% Penicillin/Streptomycin (Gibco, #15140-122) at 37° C., 5% CO2. To assess HiBiT-luminescence signal upon compound treatment, 2000 Kelly-ATXN3-HiBiT cells were seeded per well in 384 plate format. Compounds were added 24 h after seeding. ATXN3-HiBiT-luminescence signal was read out 48 h after addition of the compound using the Nano Glo HiBiT Lytic Detection System (Promega, #N3050) according to the manufacturer's instructions. To control for cell viability, an identically prepared sister plate was read out with the CellTiter-Glo® 2.0 Assay (Promega, #G9243) according to the manufacturer's instructions. Fold changes of ATXN3-HiBiT-luminescence and of CellTiter-Glo viability signals were calculated relative to a DMSO control condition.

| IC50 [1] | IC50 [2] | EC50 [3] | Compound |
| --- | --- | --- | --- |
| 101 to 500 nM | 0.01 to 100 nM | 0.01 to 100 nM | C[C@H](F)[C@H](N)Cc1oc2c(NCc3ccncc3)nc(Cl)nc2c1Br [Compound 20, 2-[(2R,3S)-2-amino-3-fluoro-butyl]-3-bromo-5-chloro-7-{[(4-pyridyl)methyl]amino}-1-oxa-4,6-diazaindene] |
| 0.01 to 100 nM | 0.01 to 100 nM | 0.01 to 100 nM | C[C@H](F)[C@H](N)Cc1oc2c(NCc3ccco3)nc(Cl)nc2c1Br [Compound 14, 2-[(2R,3S)-2-amino-3-fluoro-butyl]-3-bromo-5-chloro-7-(furfurylamino)-1-oxa-4,6-diazaindene] |
| 10000 to 40000 nM | 10000 to 40000 nM |  | Clc1nc(NCc2ccccc2)c2occc2n1 [Compound 4, N-benzyl-2-chlorofuro[3,2-d]pyrimidin-4-amine] |
| 101 to 500 nM | 101 to 500 nM | 101 to 500 nM | C#Cc1nc(NCc2ccco2)c2oc(C[C@@H](N)[C@H](C)F)c(Br)c2n1 [Compound 28, 2-[(2R,3S)-2-amino-3-fluoro-butyl]-3-bromo-5-ethynyl-7-(furfurylamino)-1-oxa-4,6-diazaindene] |
| 10000 to 40000 nM | 10000 to 40000 nM |  | Clc1nc(NCc2ccncc2)c2occc2n1 [Compound 3, [(4-pyridyl)methyl](5-chloro-1-oxa-4,6-diaza-7-indenyl)-amine] |
| 0.01 to 100 nM | 0.01 to 100 nM | 0.01 to 100 nM | C#Cc1c(C[C@@H](N)[C@H](C)F)oc2c(NCc3cccs3)nc(Cl)nc12 [Compound 13, 6-[(2R,3S)-2-amino-3-fluorobutyl]-2-chloro-7-ethynyl-N-(thiophen-2-ylmethyl)furo[3,2-d]pyrimidin-4-amine] |
| 101 to 500 nM | 101 to 500 nM | 101 to 500 nM | C[C@H](F)[C@H](N)Cc1oc2c(NCc3nccs3)nc(Cl)nc2c1Br [Compound 18, 2-[(2R,3S)-2-amino-3-fluoro-butyl]-3-bromo-5-chloro-7-{[(1,3-thiazol-2-yl)methyl]-amino}-1-oxa-4,6-diaza-indene] |
| 101 to 500 nM | 0.01 to 100 nM | 101 to 500 nM | C[C@H](F)[C@H](N)Cc1oc2c(NCc3cccs3)nc(Cl)nc2c1Br [Compound 15, 2-[(2R,3S)-2-amino-3-fluoro-butyl]-3-bromo-5-chloro-7-thenylamino-1-oxa-4,6-diazaindene] |
| 501 to 5000 nM | 501 to 5000 nM |  | Cc1coc2c(NCc3ccco3)nc(Cl)nc12 [Compound 10, (furfuryl)(5-chloro-3-methyl-1-oxa-4,6-diaza-7-indenyl)-amine] |
| 0.01 to 100 nM | 0.01 to 100 nM | 0.01 to 100 nM | C#Cc1c(C[C@@H](N)[C@H](C)F)oc2c(NCc3ccco3)nc(Cl)nc12 [Compound 12, 2-[(2R,3S)-2-amino-3-fluoro-butyl]-5-chloro-3-ethynyl-7-(furfurylamino)-1-oxa-4,6-diazaindene] |
| 101 to 500 nM | 101 to 500 nM | 501 to 5000 nM | C[C@H](F)[C@H](N)Cc1oc2c(NCc3ccccc3)nc(Cl)nc2c1Br [Compound 19, 2-[(2R,3S)-2-amino-3-fluoro-butyl]-7-benzylamino-3-bromo-5-chloro-1-oxa-4,6-diazaindene] |
| 101 to 500 nM | 0.01 to 100 nM | 0.01 to 100 nM | C[C@H](F)[C@H](N)Cc1oc2c(NCc3ccco3)nc(Cl)nc2c1Cl [Compound 16, 2-[(2R,3S)-2-amino-3-fluoro-butyl]-3,5-dichloro-7-(furfur-ylamino)-1-oxa-4,6-diaza-indene] |
| 10000 to 40000 nM | 10000 to 40000 nM |  | C/C=C/c1cc2nc(Cl)nc(NCc3ccncc3)c2o1 [Compound 6] |
|  | 501 to 5000 nM |  | C[C@H](F)[C@H](N)Cc1oc2c(NCc3cccs3)nc(Cl)nc2c1-c1ncco1 [Compound 34, 6-[(2R,3S)-2-amino-3-fluorobutyl]-2-chloro-7-(1,3-oxazol-2-yl)-N-(thiophen-2-ylmethyl)furo[3,2-d]pyrimidin-4-amine] |
| 101 to 500 nM | 101 to 500 nM | 101 to 500 nM | C[C@H](F)[C@H](N)Cc1oc2c(NCc3cccs3)nc(Cl)nc2c1Cl [Compound 17, 2-[(2R,3S)-2-amino-3-fluoro-butyl]-3,5-dichloro-7-thenyl-amino-1-oxa-4,6-diazaindene] |
| 10000 to 40000 nM | 10000 to 40000 nM |  | C/C=C/c1cc2nc(Cl)nc(NCc3ccccc3)c2o1 [Compound 5, N-benzyl-2-chloro-6-(prop-1-en-1-yl)furo[3,2-d]pyrimidin-4-amine] |
| 101 to 500 nM | 101 to 500 nM | 101 to 500 nM | C#Cc1nc(NCc2cccs2)c2oc(C[C@@H](N)[C@H](C)F)c(C#C)c2n1 [Compound 26] |
| 101 to 500 nM | 101 to 500 nM | 101 to 500 nM | C#Cc1nc(NCc2cccs2)c2oc(C[C@@H](N)[C@H](C)F)c(Br)c2n1 [Compound 27, 6-[(2R,3S)-2-amino-3-fluorobutyl]-7-bromo-2-ethynyl-N-(thiophen-2-ylmethyl)furo[3,2-d]pyrimidin-4-amine] |
| 10000 to 40000 nM | 10000 to 40000 nM |  | Cc1coc2c(NCc3nccs3)nc(Cl)nc12 [Compound 9, [(1,3-thiazol-2-yl)methyl](5-chloro-3-methyl-1-oxa-4,6-diaza-7-indenyl)amine] |

| Compound | IC50 [1] | IC50 [2] | EC50 [3] |
| --- | --- | --- | --- |
| Cc1c(C[C@H](C)N)oc2c(NCc3nccs3)nc(Cl)nc12 [Compound 7] | 10000 to 40000 nM | 10000 to 40000 nM |  |
| Cc1c(C[C@H](C)N)oc2c(NCc3ccco3)nc(Cl)nc12 [Compound 8, 2-[(S)-2-aminopropyl]-5-chloro-7-(furfurylamino)-3-methyl-1-oxa-4,6-diaza-indene] | 501 to 5000 nM | 501 to 5000 nM |  |
| C[C@H](N)Cc1oc2c(NCc3ccco3)nc(Cl)nc2c1Br [Compound 33, 2-[(S)-2-aminopropyl]-3-bromo-5-chloro-7-(furfur-ylamino)-1-oxa-4,6-diaza-indene] | 0.01 to 100 nM | 101 to 500 nM | 0.01 to 100 nM |
| Cc1c(C[C@H](C)N)oc2c(NCc3cccs3)nc(Cl)nc12 [Compound 11, 2-[(S)-2-aminopropyl]-5-chloro-3-methyl-7-thenyl-amino-1-oxa-4,6-diaza-indene] | 501 to 5000 nM | 501 to 5000 nM |  |
| CC(N)Cc1cc2nc(Cl)nc(NCc3ccccc3)c2o1 (centres unmarked) [Compound 2, 2-(2-aminopropyl)-7-benzyl-amino-5-chloro-1-oxa-4,6-diazaindene] | 10000 to 40000 nM | 10000 to 40000 nM |  |
| C[C@H](N)Cc1oc2c(NCc3cccs3)nc(Cl)nc2c1Br [Compound 32, 6-[(2S)-2-aminopropyl]-7-bromo-2-chloro-N-(thiophen-2-ylmethyl)furo[3,2-d]pyrimidin-4-amine] | 101 to 500 nM | 101 to 500 nM | 101 to 500 nM |
| CC(N)Cc1cc2nc(Cl)nc(NCc3ccncc3)c2o1 (centres unmarked) [Compound 1, 6-(2-aminopropyl)-2-chloro-N-(pyridin-4-ylmethyl)furo [3,2-d]pyrimidin-4-amine] | 10000 to 40000 nM | 10000 to 40000 nM |  |
